From ChEMBL document CHEMBL5620353, “Novel antifungal triazoles with alkynyl-methoxyl side chains: Design, synthesis, and biological activity evaluation” (Eur J Med Chem, 2023)
In brackets after ≈: the same amount, converted by molar mass.

Assays:
Assay type in all cases: functional
Nakaseomyces glabratus [1] = assay: Antifungal activity against Candida glabrata 537 assessed as inhibition of fungal growth incubated for 48 hrs by microbroth dilution method
Pichia kudriavzevii = assay: Antifungal activity against Candida krusei 4996 assessed as inhibition of fungal growth incubated for 48 hrs by microbroth dilution method
Cryptococcus neoformans = assay: Antifungal activity against Cryptococcus neoformans 32,609 assessed as inhibition of fungal growth incubated for 72 hrs by microbroth dilution method
Aspergillus fumigatus = assay: Antifungal activity against Aspergillus fumigatus 7544 assessed as inhibition of fungal growth incubated for 72 hrs by microbroth dilution method
Candida albicans [2] = assay: Antifungal activity against Candida albicans 10231 assessed as inhibition of fungal growth incubated for 48 hrs by microbroth dilution method
Candida albicans [3] = assay: Antifungal activity against Candida albicans SC5314 assessed as inhibition of fungal growth incubated for 48 hrs by microbroth dilution method
Candida tropicalis = assay: Antifungal activity against Candida tropicalis 8915 assessed as inhibition of fungal growth incubated for 48 hrs by microbroth dilution method
Candida parapsilosis = assay: Antifungal activity against Candida parapsilosis 22019 assessed as inhibition of fungal growth incubated for 48 hrs by microbroth dilution method; conditions: Lodderomyces parapsilosis
Nakaseomyces glabratus [4] = assay: Potency index, ratio of fluconazole MIC to test compound MIC for antifungal activity against Candida glabrata 537 assessed as inhibition of fungal growth incubated for 48 hrs by microbroth dilution method

Row | SMILES | MIC (Nakaseomyces glabratus [1]) | MIC (Pichia kudriavzevii) | MIC (Cryptococcus neoformans) | MIC (Aspergillus fumigatus) | MIC (Candida albicans [2]) | MIC (Candida albicans [3]) | MIC (Candida tropicalis) | MIC (Candida parapsilosis) | Ratio (Nakaseomyces glabratus [4])
1 | COc1ccc(C#CCO[C@H](C)[C@](O)(Cn2cncn2)c2ccc(F)cc2F)cc1 | 0.25 µg/mL (≈ 0.605 µM) | 32 µg/mL (≈ 77.4 µM) | 2 µg/mL (≈ 4.84 µM) | 4 µg/mL (≈ 9.68 µM) | 16 µg/mL (≈ 38.7 µM) | ≤ 0.125 µg/mL | 16 µg/mL (≈ 38.7 µM) | 4 µg/mL (≈ 9.68 µM) | 
2 | C[C@@H](OCC#Cc1cccc(Cl)c1Cl)[C@](O)(Cn1cncn1)c1ccc(F)cc1F | 1 µg/mL (≈ 2.21 µM) | 64 µg/mL (≈ 142 µM) | 4 µg/mL (≈ 8.84 µM) | 4 µg/mL (≈ 8.84 µM) | 32 µg/mL (≈ 70.8 µM) | ≤ 0.125 µg/mL | 32 µg/mL (≈ 70.8 µM) | 8 µg/mL (≈ 17.7 µM) | 
3 | C[C@@H](OCC#Cc1ccccc1Cl)[C@](O)(Cn1cncn1)c1ccc(F)cc1F | 0.25 µg/mL (≈ 0.598 µM) | 8 µg/mL (≈ 19.1 µM) | 2 µg/mL (≈ 4.79 µM) | 4 µg/mL (≈ 9.57 µM) | 16 µg/mL (≈ 38.3 µM) | 0.25 µg/mL (≈ 0.598 µM) | 64 µg/mL (≈ 153 µM) | 1 µg/mL (≈ 2.39 µM) | 
4 | C[C@@H](OCC#Cc1ccccc1F)[C@](O)(Cn1cncn1)c1ccc(F)cc1F | ≤ 0.125 µg/mL | 8 µg/mL (≈ 19.9 µM) | 0.5 µg/mL (≈ 1.25 µM) | 4 µg/mL (≈ 9.97 µM) | 8 µg/mL (≈ 19.9 µM) | ≤ 0.125 µg/mL | 64 µg/mL (≈ 159 µM) | 2 µg/mL (≈ 4.98 µM) | >=8
5 | C[C@@H](OCC#Cc1cccnc1)[C@](O)(Cn1cncn1)c1ccc(F)cc1F | ≤ 0.125 µg/mL | 4 µg/mL (≈ 10.4 µM) | ≤ 0.125 µg/mL | 4 µg/mL (≈ 10.4 µM) | 32 µg/mL (≈ 83.2 µM) | ≤ 0.125 µg/mL | 64 µg/mL (≈ 166 µM) | ≤ 0.125 µg/mL | >=8
6 | C[C@@H](OCC#Cc1ccc(C(F)(F)F)cc1)[C@](O)(Cn1cncn1)c1ccc(F)cc1F | 1 µg/mL (≈ 2.22 µM) | 64 µg/mL (≈ 142 µM) | 8 µg/mL (≈ 17.7 µM) | 16 µg/mL (≈ 35.4 µM) | 32 µg/mL (≈ 70.9 µM) | 4 µg/mL (≈ 8.86 µM) | 64 µg/mL (≈ 142 µM) | 16 µg/mL (≈ 35.4 µM) | 
7 | Cc1ccc(C#CCO[C@H](C)[C@](O)(Cn2cncn2)c2ccc(F)cc2F)cc1 | ≤ 0.125 µg/mL | 32 µg/mL (≈ 80.5 µM) | 2 µg/mL (≈ 5.03 µM) | 4 µg/mL (≈ 10.1 µM) | 16 µg/mL (≈ 40.3 µM) | ≤ 0.125 µg/mL | 16 µg/mL (≈ 40.3 µM) | 4 µg/mL (≈ 10.1 µM) | >=8
8 | C[C@@H](OCC#Cc1cccc(F)c1F)[C@](O)(Cn1cncn1)c1ccc(F)cc1F | ≤ 0.125 µg/mL | 8 µg/mL (≈ 19.1 µM) | 1 µg/mL (≈ 2.38 µM) | 8 µg/mL (≈ 19.1 µM) | 16 µg/mL (≈ 38.2 µM) | ≤ 0.125 µg/mL | 32 µg/mL (≈ 76.3 µM) | 1 µg/mL (≈ 2.38 µM) | >=8
9 | C[C@@H](OCC#Cc1cc(Cl)ccc1Cl)[C@](O)(Cn1cncn1)c1ccc(F)cc1F | ≤ 0.125 µg/mL | 32 µg/mL (≈ 70.8 µM) | 2 µg/mL (≈ 4.42 µM) | 16 µg/mL (≈ 35.4 µM) | > 64 µg/mL | 0.25 µg/mL (≈ 0.553 µM) | > 64 µg/mL | 4 µg/mL (≈ 8.84 µM) | >=8
10 | C[C@@H](OCC#Cc1c(Cl)cc(Cl)cc1Cl)[C@](O)(Cn1cncn1)c1ccc(F)cc1F | ≤ 0.125 µg/mL | 16 µg/mL (≈ 32.9 µM) | 0.5 µg/mL (≈ 1.03 µM) | 2 µg/mL (≈ 4.11 µM) | > 64 µg/mL | 1 µg/mL (≈ 2.05 µM) | 64 µg/mL (≈ 131 µM) | 2 µg/mL (≈ 4.11 µM) | >=8
11 | C[C@@H](OCC#Cc1cccc(F)c1)[C@](O)(Cn1cncn1)c1ccc(F)cc1F | ≤ 0.125 µg/mL | 16 µg/mL (≈ 39.9 µM) | 1 µg/mL (≈ 2.49 µM) | 1 µg/mL (≈ 2.49 µM) | 16 µg/mL (≈ 39.9 µM) | ≤ 0.125 µg/mL | 32 µg/mL (≈ 79.7 µM) | 1 µg/mL (≈ 2.49 µM) | >=8
12 | C[C@@H](OCC#Cc1ccc(OC(F)(F)F)cc1)[C@](O)(Cn1cncn1)c1ccc(F)cc1F | 2 µg/mL (≈ 4.28 µM) | 64 µg/mL (≈ 137 µM) | 4 µg/mL (≈ 8.56 µM) | 8 µg/mL (≈ 17.1 µM) | 32 µg/mL (≈ 68.5 µM) | 4 µg/mL (≈ 8.56 µM) | 32 µg/mL (≈ 68.5 µM) | 16 µg/mL (≈ 34.2 µM) | 
